Patent publication US20240116988A1, “ANTI-ROR1 MACROCYCLIC PEPTIDES AND COMPOSITIONS” (BRISTOL-MYERS SQUIBB COMPANY, priority 2022, published 2024)
Positions of bridges follow the written chain, without caps; N, C: chain ends. Non-standard residues stand in square brackets, D forms with d. Residues, ends and D or L forms follow the SMILES beside them. ξ: configuration not given here. NMeF = CN[C@@H](Cc1ccccc1)C(=O)O; PEG5 = NCCOCCOCCOCCOCCOCCC(=O)O; NMeNle = CCCC[C@H](NC)C(=O)O; PEG3 = NCCOCCOCCOCCC(=O)O; NMeA = CN[C@@H](C)C(=O)O; AEEA = NCCOCCOCC(=O)O; ξL = CC(C)CC(N)C(=O)O

These compounds were tested against T1, human ROR1 (Homo sapiens, UniProt Q01973) (assay: ROR1 high content cell-based binding assay). Conditions: read-out: ROR1 Binding 293T Human HC Cell Based Assay IC50.
T1 construct: host or cells: HEK 293T cells, Tet-on system induced with doxycycline
Summary of the method: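 Doxycycline-induced 293T cells expressing human ROR1, seeded overnight, were treated with compound plus 5-FAM-labeled ROR1-binding probe peptide (30 nM final) for 1 h at 37 °C. After washing and formaldehyde/Hoechst fixation, cell-bound probe fluorescence was read by high-content imaging.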

T1 sequence (Q01973 30-937): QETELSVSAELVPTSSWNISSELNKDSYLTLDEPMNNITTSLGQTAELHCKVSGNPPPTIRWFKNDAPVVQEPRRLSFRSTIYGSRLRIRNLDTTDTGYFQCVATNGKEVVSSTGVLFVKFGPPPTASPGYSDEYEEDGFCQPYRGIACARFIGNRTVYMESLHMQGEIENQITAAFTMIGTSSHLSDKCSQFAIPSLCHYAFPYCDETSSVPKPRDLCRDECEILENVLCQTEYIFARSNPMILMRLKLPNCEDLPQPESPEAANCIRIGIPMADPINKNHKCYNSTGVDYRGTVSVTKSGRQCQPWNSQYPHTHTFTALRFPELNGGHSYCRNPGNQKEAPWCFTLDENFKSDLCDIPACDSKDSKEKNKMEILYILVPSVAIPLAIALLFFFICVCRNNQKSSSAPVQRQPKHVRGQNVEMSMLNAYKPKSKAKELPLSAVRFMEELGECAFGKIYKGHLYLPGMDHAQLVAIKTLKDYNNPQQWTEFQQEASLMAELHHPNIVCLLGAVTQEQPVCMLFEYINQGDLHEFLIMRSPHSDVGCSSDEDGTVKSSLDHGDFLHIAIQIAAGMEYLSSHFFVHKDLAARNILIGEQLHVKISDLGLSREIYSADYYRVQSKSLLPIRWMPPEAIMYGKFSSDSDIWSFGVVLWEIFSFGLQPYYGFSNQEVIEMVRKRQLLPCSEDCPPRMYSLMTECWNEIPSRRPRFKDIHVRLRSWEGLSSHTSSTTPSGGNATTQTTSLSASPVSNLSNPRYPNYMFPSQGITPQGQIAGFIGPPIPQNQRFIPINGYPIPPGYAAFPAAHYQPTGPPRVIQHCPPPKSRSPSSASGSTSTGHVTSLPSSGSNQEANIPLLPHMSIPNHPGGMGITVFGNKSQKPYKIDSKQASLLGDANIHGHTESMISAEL

Row | IC50 | SMILES
1 | 0.08 µM | CC(C)C[C@@H]1NC(=O)CSC[C@@H](C(=O)NCC(N)=O)NC(=O)[C@H](CC(C)C)NC(=O)[C@H](Cc2ccccc2)N(C)C(=O)[C@H](Cc2ccc(O)cc2)NC(=O)[C@H](Cc2c[nH]c3ccccc23)NC(=O)CNC(=O)[C@H](CO)NC(=O)[C@H](Cc2ccc(O)cc2)NC(=O)[C@H](C(C)C)NC(=O)[C@H](CC(C)C)NC(=O)[C@H](Cc2ccc(O)cc2)NC1=O [Example 1072] ({CH2CO}-LYLVYSGWY[NMeF]LCG-NH2; thioether N-12)
2 | 0.249 µM | CC(C)C[C@@H]1NC(=O)[C@H](Cc2ccc(O)cc2)NC(=O)[C@H]([C@@H](C)O)NC(=O)CSC[C@@H](C(=O)NCC(N)=O)NC(=O)[C@H](CC(C)C)NC(=O)[C@H](Cc2ccccc2)N(C)C(=O)[C@H](Cc2ccc(O)cc2)NC(=O)[C@H](Cc2c[nH]c3ccccc23)NC(=O)CNC(=O)[C@H](CO)NC(=O)[C@H](Cc2ccc(O)cc2)NC(=O)[C@H](C(C)C)NC1=O [Example 1073] ({CH2CO}-TYLVYSGWY[NMeF]LCG-NH2; thioether N-12)
3 | 0.122 µM | CC(C)CC1NC(=O)[C@H](Cc2ccc(O)cc2)NC(=O)[C@H](C(C)C)NC(=O)CSC[C@@H](C(=O)NCC(N)=O)NC(=O)[C@H](CC(C)C)NC(=O)[C@H](Cc2ccccc2)N(C)C(=O)[C@H](Cc2ccc(O)cc2)NC(=O)[C@H](Cc2c[nH]c3ccccc23)NC(=O)CNC(=O)[C@H](CO)NC(=O)[C@H](Cc2ccc(O)cc2)NC(=O)[C@H](C(C)C)NC1=O (stereo partly shown) [Example 1074] ({CH2CO}-VY[ξL]VYSGWY[NMeF]LCG-NH2; thioether N-12)
4 | 0.03 µM | CC(C)C[C@@H]1NC(=O)[C@H](Cc2ccc(O)cc2)NC(=O)[C@H](Cc2cnc[nH]2)NC(=O)CSC[C@@H](C(=O)NCC(N)=O)NC(=O)[C@H](CC(C)C)NC(=O)[C@H](Cc2ccccc2)N(C)C(=O)[C@H](Cc2ccc(O)cc2)NC(=O)[C@H](Cc2c[nH]c3ccccc23)NC(=O)CNC(=O)[C@H](CO)NC(=O)[C@H](Cc2ccc(O)cc2)NC(=O)[C@H](C(C)C)NC1=O [Example 1075] ({CH2CO}-HYLVYSGWY[NMeF]LCG-NH2; thioether N-12)
5 | 0.518 µM | CC(C)C[C@@H]1NC(=O)[C@H](Cc2ccc(O)cc2)NC(=O)[C@H](CC(N)=O)NC(=O)CSC[C@@H](C(=O)NCC(N)=O)NC(=O)[C@H](CC(C)C)NC(=O)[C@H](Cc2ccccc2)N(C)C(=O)[C@H](Cc2ccc(O)cc2)NC(=O)[C@H](Cc2c[nH]c3ccccc23)NC(=O)CNC(=O)[C@H](CO)NC(=O)[C@H](Cc2ccc(O)cc2)NC(=O)[C@H](C(C)C)NC1=O [Example 1076] ({CH2CO}-NYLVYSGWY[NMeF]LCG-NH2; thioether N-12)
6 | 0.217 µM | CC(C)C[C@@H]1NC(=O)[C@H](Cc2ccc(O)cc2)NC(=O)[C@H](Cc2ccccc2)NC(=O)CSC[C@@H](C(=O)NCC(=O)O)NC(=O)[C@H](CC(C)C)NC(=O)[C@H](Cc2ccccc2)N(C)C(=O)[C@H](Cc2ccc(O)cc2)NC(=O)[C@H](Cc2c[nH]c3ccccc23)NC(=O)CNC(=O)[C@H](CO)NC(=O)[C@H](Cc2ccc(O)cc2)NC(=O)[C@H](C(C)C)NC1=O [Example 1080] ({CH2CO}-FYLVYSGWY[NMeF]LCG-OH; thioether N-12)
7 | 0.227 µM | CC[C@H](C)[C@@H]1NC(=O)CSC[C@@H](C(=O)NCC(N)=O)NC(=O)[C@H](CC(C)C)NC(=O)[C@H](Cc2ccccc2)N(C)C(=O)[C@H](Cc2ccc(O)cc2)NC(=O)[C@H](Cc2c[nH]c3ccccc23)NC(=O)CNC(=O)[C@H](CO)NC(=O)[C@H](Cc2ccc(O)cc2)NC(=O)[C@H](C(C)C)NC(=O)[C@H](CC(C)C)NC(=O)[C@H](Cc2ccc(O)cc2)NC1=O [Example 1084] ({CH2CO}-IYLVYSGWY[NMeF]LCG-NH2; thioether N-12)

More lines, now with the values behind:

Row | SMILES | IC50
8 | CC(C)C[C@@H]1NC(=O)CNC(=O)[C@H](Cc2ccccc2)NC(=O)CSC[C@@H](C(=O)NCC(N)=O)NC(=O)[C@H](CC(C)C)NC(=O)[C@H](Cc2ccccc2)N(C)C(=O)[C@H](Cc2ccc(O)cc2)NC(=O)[C@H](Cc2c[nH]c3ccccc23)NC(=O)CNC(=O)[C@H](CO)NC(=O)[C@H](Cc2ccc(O)cc2)NC(=O)[C@H](C(C)C)NC1=O [Example 1068] ({CH2CO}-FGLVYSGWY[NMeF]LCG-NH2; thioether N-12) | 0.453 µM
9 | CC(C)C[C@@H]1NC(=O)[C@H](Cc2ccc(O)cc2)NC(=O)[C@H](Cc2ccccc2)NC(=O)CSC[C@@H](C(=O)NCC(N)=O)NC(=O)[C@H](CC(C)C)NC(=O)[C@H](Cc2ccccc2)N(C)C(=O)[C@H](Cc2ccc(O)cc2)NC(=O)[C@H](Cc2c[nH]c3ccccc23)NC(=O)CNC(=O)[C@H](CO)NC(=O)[C@H](Cc2ccc(O)cc2)NC(=O)[C@H](CO)NC1=O [Example 1069] ({CH2CO}-FYLSYSGWY[NMeF]LCG-NH2; thioether N-12) | 0.082 µM
10 | CC(C)C[C@@H]1NC(=O)[C@H](Cc2ccccc2)NC(=O)[C@H](Cc2ccc(O)cc2)NC(=O)[C@H](Cc2c[nH]c3ccccc23)NC(=O)CNC(=O)[C@H](CO)NC(=O)[C@H](Cc2ccc(O)cc2)NC(=O)[C@H](C(C)C)NC(=O)[C@H](CC(C)C)NC(=O)[C@H](Cc2ccc(O)cc2)NC(=O)[C@H](Cc2ccccc2)NC(=O)CSC[C@@H](C(=O)NCC(N)=O)NC1=O [Example 1070] ({CH2CO}-FYLVYSGWYFLCG-NH2; thioether N-12) | 0.065 µM
11 | CC(C)C[C@@H]1NC(=O)[C@H](Cc2ccc(O)cc2)NC(=O)[C@H](Cc2ccccc2)NC(=O)CSC[C@@H](C(=O)NCC(N)=O)NC(=O)[C@H](CC(C)C)NC(=O)[C@H](Cc2ccccc2)N(C)C(=O)[C@H](Cc2ccc(O)cc2)NC(=O)[C@H](Cc2c[nH]c3ccccc23)NC(=O)[C@H](C)NC(=O)[C@H](CO)NC(=O)[C@H](Cc2ccc(O)cc2)NC(=O)[C@H](C(C)C)NC1=O [Example 1071] ({CH2CO}-FYLVYSAWY[NMeF]LCG-NH2; thioether N-12) | 0.072 µM
12 | CC(C)C[C@@H]1NC(=O)[C@H](Cc2ccc(O)cc2)NC(=O)[C@H](Cc2c[nH]c3ccccc23)NC(=O)CSC[C@@H](C(=O)NCC(N)=O)NC(=O)[C@H](CC(C)C)NC(=O)[C@H](Cc2ccccc2)N(C)C(=O)[C@H](Cc2ccc(O)cc2)NC(=O)[C@H](Cc2c[nH]c3ccccc23)NC(=O)CNC(=O)[C@H](CO)NC(=O)[C@H](Cc2ccc(O)cc2)NC(=O)[C@H](C(C)C)NC1=O [Example 1077] ({CH2CO}-WYLVYSGWY[NMeF]LCG-NH2; thioether N-12) | 0.002 µM
13 | CCCC[C@H]1C(=O)N[C@@H](CC(C)C)C(=O)N[C@H](C(=O)NCCOCCOCC(=O)N[C@@H](CCCCN)C(N)=O)CSCC(=O)N[C@@H](Cc2ccccc2)C(=O)N[C@@H](Cc2ccc(O)cc2)C(=O)N[C@@H](Cc2c[nH]c3ccccc23)C(=O)N[C@@H](CO)C(=O)N[C@@H](CO)C(=O)N[C@@H](CCCNC(=N)N)C(=O)N(C)[C@@H](C)C(=O)N[C@@H](Cc2c[nH]c3ccccc23)C(=O)N[C@@H](Cc2ccc(O)cc2)C(=O)N1C [Example 1079] ({CH2CO}-FYWSSR[NMeA]WY[NMeNle]LC[AEEA]K-NH2; thioether N-12) | 0.025 µM
14 | CC[C@H](C)[C@@H]1NC(=O)[C@H](Cc2ccccc2)NC(=O)CSC[C@@H](C(=O)NCC(=O)NCCOCCOCC(=O)N[C@@H](CCCCN)C(N)=O)NC(=O)[C@H](C)NC(=O)[C@H](Cc2ccccc2)NC(=O)[C@H](Cc2ccc(O)cc2)NC(=O)[C@H](Cc2c[nH]c3ccccc23)NC(=O)CNC(=O)[C@H](CCC(=O)O)NC(=O)[C@H](Cc2ccc(O)cc2)NC(=O)[C@H](C(C)C)NC(=O)[C@H](Cc2c[nH]c3ccccc23)NC1=O [Example 1081] ({CH2CO}-FIWVYEGWYFACG[AEEA]K-NH2; thioether N-12) | 0.177 µM
15 | CC(C)C[C@@H]1NC(=O)[C@H](Cc2ccc(O)cc2)NC(=O)[C@H](Cc2ccccc2)N(C)C(=O)CSC[C@@H](C(=O)NCC(N)=O)NC(=O)[C@H](CC(C)C)NC(=O)[C@H](Cc2ccccc2)N(C)C(=O)[C@H](Cc2ccc(O)cc2)NC(=O)[C@H](Cc2c[nH]c3ccccc23)NC(=O)CNC(=O)[C@H](CO)NC(=O)[C@H](Cc2ccc(O)cc2)NC(=O)[C@H](C(C)C)NC1=O [Example 1082] ({CH2CO}-[NMeF]YLVYSGWY[NMeF]LCG-NH2; thioether N-12) | 0.192 µM
16 | CC(C)C[C@@H]1NC(=O)[C@H](Cc2ccc(O)cc2)NC(=O)[C@H](Cc2ccccc2)NC(=O)CSC[C@@H](C(=O)NCCOCCOCCOCCOCCOCCC(=O)N[C@@H](CCCCN)C(N)=O)NC(=O)[C@H](CC(C)C)NC(=O)[C@H](Cc2ccccc2)N(C)C(=O)[C@H](Cc2ccc(O)cc2)NC(=O)[C@H](Cc2c[nH]c3ccccc23)NC(=O)CNC(=O)[C@H](CO)NC(=O)[C@H](Cc2ccc(O)cc2)NC(=O)[C@H](C(C)C)NC1=O [Example 1083] ({CH2CO}-FYLVYSGWY[NMeF]LC[PEG5]K-NH2; thioether N-12) | 0.022 µM
17 | CC(C)C[C@@H]1NC(=O)[C@H](Cc2ccc(O)cc2)NC(=O)[C@H](Cc2ccccc2)NC(=O)CSC[C@@H](C(=O)NCCOCCOCCOCCC(=O)N[C@@H](CCCCN)C(N)=O)NC(=O)[C@H](CC(C)C)NC(=O)[C@H](Cc2ccccc2)N(C)C(=O)[C@H](Cc2ccc(O)cc2)NC(=O)[C@H](Cc2c[nH]c3ccccc23)NC(=O)CNC(=O)[C@H](CO)NC(=O)[C@H](Cc2ccc(O)cc2)NC(=O)[C@H](C(C)C)NC1=O [Example 1085] ({CH2CO}-FYLVYSGWY[NMeF]LC[PEG3]K-NH2; thioether N-12) | 0.018 µM
18 | CC(C)C[C@@H]1NC(=O)[C@H](Cc2ccccc2)NC(=O)CSC[C@@H](C(=O)NCCOCCOCC(=O)O)NC(=O)[C@H](C)NC(=O)[C@H](Cc2ccc(O)cc2)NC(=O)[C@H](Cc2ccc(O)cc2)NC(=O)[C@H](Cc2c[nH]c3ccccc23)NC(=O)CNC(=O)[C@H](Cc2ccc(O)cc2)NC(=O)[C@H](CCCNC(=N)N)NC(=O)[C@H](C(C)C)NC(=O)[C@H](Cc2c[nH]c3ccccc23)NC1=O [Example 1086] ({CH2CO}-FLWVRYGWYYAC[AEEA]-OH; thioether N-12) | 0.364 µM
19 | CC(C)C[C@@H]1NC(=O)[C@H](Cc2ccccc2)NC(=O)CSC[C@@H](C(=O)NCC(=O)NCCOCCOCC(=O)O)NC(=O)[C@H](C)NC(=O)[C@H](Cc2ccc(O)cc2)NC(=O)[C@H](Cc2ccc(O)cc2)NC(=O)[C@H](Cc2c[nH]c3ccccc23)NC(=O)CNC(=O)[C@H](Cc2ccc(O)cc2)NC(=O)[C@H](CCCNC(=N)N)NC(=O)[C@H](C(C)C)NC(=O)[C@H](Cc2c[nH]c3ccccc23)NC1=O [Example 1087] ({CH2CO}-FLWVRYGWYYACG[AEEA]-OH; thioether N-12) | 0.131 µM
